Values of other authors as cited in patent publication US20220257592A1, “METHODS OF TREATING CANCER” (HOFFMANN-LA ROCHE INC., priority 2019, published 2022).

Tests used:
TrkC = TrkC (Homo sapiens, UniProt Q16288); conditions: cited from earlier work
TrkB = TrkB (Homo sapiens, UniProt Q16620); conditions: cited from earlier work
TrkB, sequence (Q16620 32-822): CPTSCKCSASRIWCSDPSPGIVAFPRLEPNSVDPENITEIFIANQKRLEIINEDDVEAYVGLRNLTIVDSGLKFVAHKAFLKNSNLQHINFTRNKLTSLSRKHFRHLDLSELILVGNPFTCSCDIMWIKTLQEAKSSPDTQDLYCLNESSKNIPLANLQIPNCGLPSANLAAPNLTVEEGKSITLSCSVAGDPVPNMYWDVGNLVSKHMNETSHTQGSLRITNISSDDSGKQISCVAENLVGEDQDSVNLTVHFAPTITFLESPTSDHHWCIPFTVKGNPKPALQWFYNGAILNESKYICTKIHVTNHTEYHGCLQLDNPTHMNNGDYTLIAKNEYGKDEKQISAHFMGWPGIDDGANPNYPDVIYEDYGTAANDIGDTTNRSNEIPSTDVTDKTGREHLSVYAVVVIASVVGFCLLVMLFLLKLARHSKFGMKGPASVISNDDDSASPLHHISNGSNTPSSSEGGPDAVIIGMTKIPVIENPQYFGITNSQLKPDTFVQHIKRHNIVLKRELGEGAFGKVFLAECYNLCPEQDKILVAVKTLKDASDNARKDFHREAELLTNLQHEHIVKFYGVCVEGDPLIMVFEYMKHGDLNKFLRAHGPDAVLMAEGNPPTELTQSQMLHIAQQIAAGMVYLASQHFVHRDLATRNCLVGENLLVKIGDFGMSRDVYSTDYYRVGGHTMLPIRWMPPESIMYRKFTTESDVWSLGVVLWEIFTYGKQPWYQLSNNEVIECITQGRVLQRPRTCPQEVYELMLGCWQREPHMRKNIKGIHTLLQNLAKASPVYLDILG

TrkC, sequence (Q16288 32-839): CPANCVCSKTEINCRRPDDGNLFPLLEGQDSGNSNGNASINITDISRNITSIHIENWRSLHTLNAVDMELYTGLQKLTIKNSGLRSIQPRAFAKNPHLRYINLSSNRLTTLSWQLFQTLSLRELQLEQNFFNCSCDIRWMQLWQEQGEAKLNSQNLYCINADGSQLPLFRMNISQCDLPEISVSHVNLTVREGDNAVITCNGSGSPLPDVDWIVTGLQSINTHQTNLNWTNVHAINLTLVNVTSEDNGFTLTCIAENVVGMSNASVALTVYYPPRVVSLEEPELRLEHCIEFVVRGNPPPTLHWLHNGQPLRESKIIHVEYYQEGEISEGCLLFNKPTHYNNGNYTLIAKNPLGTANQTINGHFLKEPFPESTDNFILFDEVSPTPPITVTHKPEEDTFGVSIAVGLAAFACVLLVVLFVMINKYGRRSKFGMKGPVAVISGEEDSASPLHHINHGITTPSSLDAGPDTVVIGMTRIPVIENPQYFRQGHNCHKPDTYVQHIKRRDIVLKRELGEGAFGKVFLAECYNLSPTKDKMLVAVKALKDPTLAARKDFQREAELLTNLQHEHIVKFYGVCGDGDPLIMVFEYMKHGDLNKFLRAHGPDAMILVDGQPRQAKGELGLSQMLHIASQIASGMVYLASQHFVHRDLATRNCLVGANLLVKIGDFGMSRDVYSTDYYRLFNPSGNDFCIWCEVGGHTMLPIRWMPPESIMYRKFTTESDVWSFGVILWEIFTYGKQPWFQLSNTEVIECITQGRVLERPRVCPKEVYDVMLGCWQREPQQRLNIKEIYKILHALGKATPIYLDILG

Q: With `CN1CCN(c2ccc(C(=O)Nc3n[nH]c4ccc(Cc5cc(F)cc(F)c5)cc34)c(NC3CCOCC3)c2)CC1` [Entrectinib, N-[5-(3,5-difluorobenzyl)-1H-indazol-3-yl]-4-(4-methyl-piperazin-1-yl)-2-(tetrahydro-pyran-4-ylamino)-benzamide] as the molecule, how does the “inhibition of TrkC tyrosine kinase” value (TrkC) read?
A: The value was “potent inhibitor”.

Q: What about the “inhibition of TrkB tyrosine kinase” value (TrkB) of the same molecule?
A: The value was “potent inhibitor”.
